For ten molecules, Activity, Stability and IC50 results are on record in ChEMBL document CHEMBL4266050, “Metabolomics-Driven Discovery of Meroterpenoids from a Mussel-Derived Penicillium ubiquetum” (J Nat Prod, 2018).

pIC50: −log10 of the molar value. The source made the active and inactive calls. No cut-off for these calls is given here.

Data set [1] relates to MCF7. Put plainly: Cytotoxicity against human MCF7 cells at 50 uM by MTT assay. Type of data set: functional, cell-based. In general terms: Tetrazolium dyes change colour on reduction, which living cells bring about.
For data set [2], the system named is KB. Put plainly: Cytotoxicity against human KB cells at 50 uM by MTT assay. It is filed as functional, cell-based.
Data set [3] can be described thus: Stability of the compound. It is filed as physicochemical.
For data set [4], the system named is KB. In words: Cytotoxicity against human KB cells by MTT assay. It is filed as functional, cell-based.
The test system of data set [5] is MCF7. In words: Cytotoxicity against human MCF7 cells by MTT assay. Type of data set: functional, cell-based.

On to `COC(=O)[C@@]12[C@@]3(C)[C@H]4C=C5C(=CC(=O)OC5(C)C)[C@H](C)[C@@H]3C[C@@]3(C)C(=O)O[C@@H](O[C@@H](C)[C@@]1(O)O4)[C@@]23O`, for which the outcome in data set [1] and in data set [2] was inactive.

`COC(=O)[C@@]12[C@@H]3[C@H]4OC(=O)[C@]3(C)C[C@@H]3[C@]1(C)[C@@H](C=C1C(=CC(=O)OC1(C)C)[C@@]3(C)O)O[C@]2(O)[C@H](C)O4`: the outcome in data set [1] and in data set [2] was inactive.

With `COC(=O)[C@]12[C@@H]3[C@H]4OC(=O)[C@]3(C)C[C@H]3[C@@H](C)C5=CC(=O)OC(C)(C)C5=C[C@@H](O[C@]1(O)[C@H](C)O4)[C@@]32C`, the outcome in data set [1] and in data set [2] was inactive.

In the case of `COC(=O)O[C@@H]1C=C2C(=CC(=O)OC2(C)C)[C@H](C)[C@@H]2C[C@@]3(C)C(=O)O[C@H]4O[C@@H](C)C(=O)[C@H]([C@H]43)[C@@]12C`, the outcome in data set [1] and in data set [2] was inactive.

In the case of `COC(=O)O[C@@H]1C=C2C(=CC(=O)OC2(C)C)[C@H](C)[C@@H]2C[C@@]3(C)C(=O)O[C@H]4O[C@@H](C)C(=O)[C@@H]([C@@]12C)[C@]43O`, the result in data set [1] and in data set [2] was inactive.

As to `COC(=O)[C@]12C(=O)[C@H](C)O[C@@H]3OC(=O)[C@](C)(C[C@H]4[C@@H](C)C5=CC(=O)OC(C)(C)C5=C[C@@H](O)[C@@]41C)[C@@H]32`, in data set [3], the Stability result was “Unstable”.

For the molecule `COC(=O)[C@@]1(C)O[C@H]2OC(=O)[C@@H]3[C@H]2[C@@](C)(C[C@H]2C(C)=C4CC(=O)OC(C)(C)C4=CC[C@]32C)C1=O`, the result in data set [1] and in data set [2] was inactive.

For `COC(=O)[C@]12C(=O)[C@H](C)O[C@@H]3OC(=O)[C@](C)(C[C@H]4C(C)=C5CC(=O)OC(C)(C)C5=CC[C@@]41C)[C@@H]32`, the result in data set [1] and in data set [2] was inactive.

For the molecule `CC(=O)O[C@@]12CO[C@@H]1C[C@H](O)[C@@]1(C)C(=O)[C@H](O)C3=C(C)[C@@H](OC(=O)[C@H](O)[C@@H](NC(=O)OC(C)(C)C)c4ccccc4)C[C@@](O)([C@@H](OC(=O)c4ccccc4)[C@H]21)C3(C)C` [DOCETAXEL ANHYDROUS], the pIC50 (in general, −log10 of the IC50, conventionally taken in molar units) in data set [4] is 7.42; in data set [5] it was 7.99.

For `COC(=O)[C@]12[C@@H]3[C@H]4OC(=O)[C@]3(C)CC3=C(C)C5=C(C[C@@H](O[C@]1(O)[C@H](C)O4)[C@@]32C)C(C)(C)OC(=O)C5`, the outcome in data set [1] and in data set [2] was inactive.
